Source: ChEMBL document CHEMBL1126299, “Synthesis and structure-activity relationships of cephalosporins with C-3' catechol-containing residues” (J Med Chem, 1992)
≈ marks a conversion by molar mass, not a printed value.

Assays:
Assay in all cases: microbe, parasite or virus in culture
Pseudomonas aeruginosa [1] = tested on: Pseudomonas aeruginosa
Description: Minimum inhibitory concentration in Pseudomonas aeruginosa,799WT parent organism

Providencia stuartii [2] = tested on: Providencia stuartii
Description: Minimum inhibitory concentration in Pseudomonas stuartii, DR 442049 constitutive depressed type 1 lactamase producer

Enterobacter cloacae [3] = tested on: Enterobacter cloacae
Description: Minimum inhibitory concentration in Enterobacter cloacae, P99- inducible type 1 lactamase producer

Pseudomonas aeruginosa [4] = tested on: Pseudomonas aeruginosa; remark: listed apart in the source
Description: Minimum inhibitory concentration in Pseudomonas aeruginosa,799/61 permeability mutant

Pseudomonas aeruginosa [5] = tested on: Pseudomonas aeruginosa; remark: listed apart in the source
Description: Minimum inhibitory concentration in Pseudomonas aeruginosa, 18SH constitutive depressed type 1 lactamase producer

Enterobacter cloacae [6] = tested on: Enterobacter cloacae; remark: listed apart in the source
Description: Minimum inhibitory concentration in Enterobacter cloacae, DR 401108 constitutive depressed type 1 lactamase producer

Enterobacter cloacae [7] = tested on: Enterobacter cloacae; remark: listed apart in the source
Description: Minimum inhibitory concentration in Enterobacter cloacae, I+401029 inducible type 1 lactamase producer

Citrobacter freundii [8] = tested on: Citrobacter freundii
Description: Minimum inhibitory concentration in Citrobacter freundii, I+382010 inducible type 1 lactamase producer

Enterobacter cloacae [9] = tested on: Enterobacter cloacae; remark: listed apart in the source
Description: Minimum inhibitory concentration in Enterobacter cloacae, P99+ constitutive depressed type 1 lactamase producer

Pseudomonas aeruginosa [10] = tested on: Pseudomonas aeruginosa; remark: listed apart in the source
Description: Minimum inhibitory concentration in Pseudomonas aeruginosa, 18S inducible type 1 lactamase producer

Citrobacter freundii [11] = tested on: Citrobacter freundii; remark: listed apart in the source
Description: Minimum inhibitory concentration in Citrobacter freundii, DR 382031 constitutive depressed type 1

Providencia stuartii [12] = tested on: Providencia stuartii; remark: listed apart in the source
Description: Minimum inhibitory concentration in Pseudomonas stuartii, I+442019 inducible type 1 lactamase producer

Escherichia coli [13] = tested on: Escherichia coli
Description: In vitro minimum inhibitory concentration against Escherichia coli (DC2 permeability mutant).

Staphylococcus aureus [14] = tested on: Staphylococcus aureus
Description: The compound was tested for minimum inhibitory concentration in Staphylococcus aureus,147N penicillin sensitive Staphylococcus aureus

Pseudomonas aeruginosa [15] = tested on: Pseudomonas aeruginosa; remark: listed apart in the source
Description: In vitro minimum inhibitory concentration against Pseudomonas aeruginosa (PU21).

Escherichia coli [16] = tested on: Escherichia coli; remark: listed apart in the source
Description: In vitro minimum inhibitory concentration against Escherichia coli (DC0 parent organism).

Staphylococcus aureus [17] = tested on: Staphylococcus aureus; remark: listed apart in the source
Description: The compound was tested for minimum inhibitory concentration in Staphylococcus aureus Oxford penicillin sensitive Staphylococcus aureus

SMILES	MIC (Pseudomonas aeruginosa [1]) [µg/mL]	MIC (Providencia stuartii [2]) [µg/mL]	MIC (Enterobacter cloacae [3]) [µg/mL]	MIC (Pseudomonas aeruginosa [4]) [µg/mL]	MIC (Pseudomonas aeruginosa [5]) [µg/mL]	MIC (Enterobacter cloacae [6]) [µg/mL]	MIC (Enterobacter cloacae [7]) [µg/mL]	MIC (Citrobacter freundii [8]) [µg/mL]	MIC (Enterobacter cloacae [9]) [µg/mL]	MIC (Pseudomonas aeruginosa [10]) [µg/mL]	MIC (Citrobacter freundii [11]) [µg/mL]	MIC (Providencia stuartii [12]) [µg/mL]	MIC (Escherichia coli [13]) [µg/mL]	MIC (Staphylococcus aureus [14]) [µg/mL]	MIC (Pseudomonas aeruginosa [15]) [µg/mL]	MIC (Escherichia coli [16]) [µg/mL]	MIC (Staphylococcus aureus [17]) [µg/mL]
CCOC(=O)c1nc2cc(O)c(O)cc2nc1C(=O)NCC1=C(C(=O)O)N2C(=O)[C@@H](NC(=O)/C(=N\OC(C)(C)C(=O)O)c3csc(N)n3)C2SC1 (some centres undefined)	0.008 (≈ 0.0107 µM)	2 (≈ 2.69 µM)	0.03 (≈ 0.0403 µM)	0.008 (≈ 0.0107 µM)	0.015 (≈ 0.0201 µM)	0.5 (≈ 0.671 µM)	0.03 (≈ 0.0403 µM)	0.008 (≈ 0.0107 µM)	0.06 (≈ 0.0806 µM)	0.008 (≈ 0.0107 µM)	0.06 (≈ 0.0806 µM)	0.06 (≈ 0.0806 µM)					
CCOC(=O)C(CC1=C(C(=O)O)N2C(=O)[C@@H](NC(=O)/C(=N\OC(C)(C)C(=O)O)c3csc(N)n3)C2SC1)C(=O)c1cc(O)c(O)c(Br)c1 (some centres undefined)	0.008 (≈ 0.0104 µM)	0.5 (≈ 0.649 µM)	0.125 (≈ 0.162 µM)	0.008 (≈ 0.0104 µM)	0.008 (≈ 0.0104 µM)	0.25 (≈ 0.324 µM)	0.03 (≈ 0.0389 µM)	0.008 (≈ 0.0104 µM)	0.25 (≈ 0.324 µM)	0.008 (≈ 0.0104 µM)	0.25 (≈ 0.324 µM)	0.125 (≈ 0.162 µM)					
Nc1nc(/C(=N/OC(C(=O)O)c2ccccc2)C(=O)N[C@@H]2C(=O)N3C(C(=O)O)=C(CNC(=O)c4cc(O)c(O)c(Br)c4)CSC23)cs1 (some centres undefined)	0.015 (≈ 0.0201 µM)	0.25 (≈ 0.334 µM)	0.06 (≈ 0.0803 µM)	0.008 (≈ 0.0107 µM)	0.03 (≈ 0.0401 µM)	> 128	0.03 (≈ 0.0401 µM)	0.008 (≈ 0.0107 µM)	2 (≈ 2.68 µM)	0.008 (≈ 0.0107 µM)	4 (≈ 5.35 µM)	0.06 (≈ 0.0803 µM)	0.008 (≈ 0.0107 µM)	16 (≈ 21.4 µM)	0.015 (≈ 0.0201 µM)	0.008 (≈ 0.0107 µM)	16 (≈ 21.4 µM)
CCN(CC1=C(C(=O)O)N2C(=O)[C@@H](NC(=O)/C(=N\OC(C)(C)C(=O)O)c3csc(N)n3)C2SC1)C(=O)c1cc(O)c(O)c(C#N)c1 (some centres undefined)	0.008 (≈ 0.0119 µM)	16 (≈ 23.7 µM)	0.06 (≈ 0.0891 µM)	0.008 (≈ 0.0119 µM)	0.125 (≈ 0.186 µM)	1 (≈ 1.48 µM)	0.015 (≈ 0.0223 µM)	0.008 (≈ 0.0119 µM)	1 (≈ 1.48 µM)	0.008 (≈ 0.0119 µM)	1 (≈ 1.48 µM)	0.25 (≈ 0.371 µM)					
C=C(CO/N=C(\C(=O)N[C@@H]1C(=O)N2C(C(=O)O)=C(CNC(=O)c3cc(O)c(O)c(Br)c3)CSC12)c1csc(N)n1)C(=O)O (some centres undefined)	0.008 (≈ 0.0115 µM)	2 (≈ 2.87 µM)	0.06 (≈ 0.086 µM)	0.008 (≈ 0.0115 µM)	0.05 (≈ 0.0717 µM)	> 32	0.06 (≈ 0.086 µM)	0.008 (≈ 0.0115 µM)	8 (≈ 11.5 µM)	0.008 (≈ 0.0115 µM)	16 (≈ 22.9 µM)	0.03 (≈ 0.043 µM)	0.008 (≈ 0.0115 µM)	16 (≈ 22.9 µM)	0.03 (≈ 0.043 µM)	0.008 (≈ 0.0115 µM)	16 (≈ 22.9 µM)
CCO/N=C(\C(=O)N[C@@H]1C(=O)N2C(C(=O)O)=C(CNC(=O)c3ccc(O)c(O)c3)CSC12)c1csc(N)n1 (some centres undefined)	0.06 (≈ 0.107 µM)	1 (≈ 1.78 µM)	0.5 (≈ 0.889 µM)	0.015 (≈ 0.0267 µM)	64 (≈ 114 µM)	128 (≈ 228 µM)	0.25 (≈ 0.444 µM)	0.06 (≈ 0.107 µM)	64 (≈ 114 µM)	0.03 (≈ 0.0533 µM)	> 128	0.5 (≈ 0.889 µM)	0.008 (≈ 0.0142 µM)	4 (≈ 7.11 µM)	0.25 (≈ 0.444 µM)	0.06 (≈ 0.107 µM)	2 (≈ 3.56 µM)
Nc1nc(/C(=N/OC2(C(=O)O)CCCC2)C(=O)N[C@@H]2C(=O)N3C(C(=O)O)=C(CNC(=O)c4cc(O)c(O)c(Br)c4)CSC23)cs1 (some centres undefined)	0.008 (≈ 0.011 µM)	2 (≈ 2.76 µM)	0.03 (≈ 0.0413 µM)	0.008 (≈ 0.011 µM)	0.008 (≈ 0.011 µM)	16 (≈ 22.1 µM)	0.03 (≈ 0.0413 µM)	0.008 (≈ 0.011 µM)	2 (≈ 2.76 µM)	0.015 (≈ 0.0207 µM)	4 (≈ 5.51 µM)	0.03 (≈ 0.0413 µM)	0.008 (≈ 0.011 µM)	32 (≈ 44.1 µM)	0.015 (≈ 0.0207 µM)	0.008 (≈ 0.011 µM)	16 (≈ 22.1 µM)
CC(C)(O/N=C(\C(=O)N[C@@H]1C(=O)N2C(C(=O)O)=C(CCNC(=O)Nc3ccc(O)c(O)c3)CSC12)c1csc(N)n1)C(=O)O (some centres undefined)	0.125 (≈ 0.192 µM)	16 (≈ 24.6 µM)	1 (≈ 1.54 µM)	0.125 (≈ 0.192 µM)	0.125 (≈ 0.192 µM)	64 (≈ 98.5 µM)	0.5 (≈ 0.77 µM)	0.25 (≈ 0.385 µM)	16 (≈ 24.6 µM)	0.125 (≈ 0.192 µM)	8 (≈ 12.3 µM)	2 (≈ 3.08 µM)	0.015 (≈ 0.0231 µM)	64 (≈ 98.5 µM)	0.125 (≈ 0.192 µM)	0.06 (≈ 0.0924 µM)	64 (≈ 98.5 µM)
CC(C)(O/N=C(\C(=O)N[C@@H]1C(=O)N2C(C(=O)O)=C(CNC(=O)c3cc(O)c(O)c(C#N)c3)CSC12)c1csc(N)n1)C(=O)O (some centres undefined)	0.008 (≈ 0.0124 µM)	4 (≈ 6.2 µM)	0.06 (≈ 0.0929 µM)	0.008 (≈ 0.0124 µM)	0.06 (≈ 0.0929 µM)	8 (≈ 12.4 µM)	0.03 (≈ 0.0465 µM)	0.008 (≈ 0.0124 µM)	2 (≈ 3.1 µM)	0.008 (≈ 0.0124 µM)	2 (≈ 3.1 µM)	0.06 (≈ 0.0929 µM)					
CC(=O)Oc1ccc(C(=O)OCC2=C(C(=O)O)N3C(=O)[C@@H](NC(=O)Cc4cccs4)C3SC2)cc1OC(C)=O (some centres undefined)	> 128	> 128	16 (≈ 27.8 µM)	0.125 (≈ 0.218 µM)	> 128		128 (≈ 223 µM)	16 (≈ 27.8 µM)	> 128	> 128	> 128	64 (≈ 111 µM)	0.03 (≈ 0.0522 µM)	0.06 (≈ 0.104 µM)	> 128	0.5 (≈ 0.87 µM)	0.03 (≈ 0.0522 µM)
